Assay results as given in ChEMBL document CHEMBL4118131, “Synthesis of 1,2,4-triazole-linked urea/thiourea conjugates as cytotoxic and apoptosis inducing agents” (Bioorg Med Chem Lett, 2018).
The source made the active and inactive calls. The rule behind the calls is not given here.

Tests used:
[1] = tested on: L132; experiment: Cytotoxicity in human L-132 cells assessed as reduction in cell viability incubated for 48 hrs by MTT assay; type: cell-based; settings: L132, 48 h
[2] = tested on: MCF7; experiment: Induction of apoptotic morphological changes in human MCF7 cells assessed as induction of membrane blebbing at 8 uM incubated for 48 hrs by AO/EB staining staining based fluorescence microscopy; type: functional, cell-based
[3] = tested on: MDA-MB-231; experiment: Cytotoxicity in human MDA-MB-231 cells assessed as reduction in cell viability incubated for 48 hrs by MTT assay; type: functional, cell-based; settings: MDA-MB-231, 48 h
[4] = tested on: MCF7; experiment: Induction of cell cycle arrest in human MCF7 cells assessed as accumulation at G2/M phase at 8 uM incubated for 48 hrs by propidium iodide staining based flow cytometry (reference value: 32.51%); type: functional
[5] = tested on: MCF7; experiment: Induction of apoptosis in human MCF7 cells assessed as late apoptosis cells level at 12 uM incubated for 48 hrs by Annexin V and propidium iodide staining based flow cytometry (reference value: 7.4%); type: functional
[6] = Selectivity index, ratio of IC50 for cytotoxicity in human L-132 cells to IC50 for cytotoxicity in human MCF7 cells; type: toxicity, cell-based; settings: L-132 cells and MCF7 cells, read-out: Ratio IC50
[7] = tested on: MCF7; experiment: Induction of apoptosis in human MCF7 cells assessed as viable cells level at 8 uM incubated for 48 hrs by Annexin V and propidium iodide staining based flow cytometry (reference value: 80.6%); type: functional
[8] = tested on: MCF7; experiment: Induction of apoptotic nuclear morphological changes in human MCF7 cells assessed as induction of DNA fragmentation at 12 uM incubated for 48 hrs by DAPI nuclear staining based fluorescence microscopy; type: functional, cell-based
[9] = tested on: MCF7; experiment: Cytotoxicity in human MCF7 cells assessed as reduction in cell viability incubated for 48 hrs by MTT assay; type: functional, cell-based; settings: MCF7, 48 h
[10] = tested on: MCF7; experiment: Induction of cell cycle arrest in human MCF7 cells assessed as accumulation at subG1 phase at 4 uM incubated for 48 hrs by propidium iodide staining based flow cytometry (reference value: 0.88%); type: functional
[11] = tested on: MCF7; experiment: Induction of apoptosis in human MCF7 cells assessed as necrotic cells level at 4 uM incubated for 48 hrs by Annexin V and propidium iodide staining based flow cytometry (reference value: 0.46%); type: functional
[12] = tested on: A549; experiment: Cytotoxicity in human A549 cells assessed as reduction in cell viability incubated for 48 hrs by MTT assay; type: functional, cell-based; settings: A549, 48 h
[13] = tested on: MCF7; experiment: Induction of apoptosis in human MCF7 cells assessed as viable cells level at 12 uM incubated for 48 hrs by Annexin V and propidium iodide staining based flow cytometry (reference value: 80.6%); type: functional
[14] = tested on: MCF7; experiment: Induction of cell cycle arrest in human MCF7 cells assessed as accumulation at S phase at 8 uM incubated for 48 hrs by propidium iodide staining based flow cytometry (reference value: 12.28%); type: functional
[15] = tested on: MCF7; experiment: Induction of apoptosis in human MCF7 cells assessed as necrotic cells level at 12 uM incubated for 48 hrs by Annexin V and propidium iodide staining based flow cytometry (reference value: 0.46%); type: functional
[16] = tested on: MCF7; experiment: Induction of apoptosis in human MCF7 cells assessed as late apoptosis cells level at 4 uM incubated for 48 hrs by Annexin V and propidium iodide staining based flow cytometry (reference value: 7.4%); type: functional
[17] = tested on: MCF7; experiment: Induction of apoptotic morphological changes in human MCF7 cells assessed as induction of membrane blebbing at 4 uM incubated for 48 hrs by AO/EB staining staining based fluorescence microscopy; type: functional, cell-based
[18] = tested on: MCF7; experiment: Induction of apoptosis in human MCF7 cells assessed as late apoptosis cells level at 8 uM incubated for 48 hrs by Annexin V and propidium iodide staining based flow cytometry (reference value: 7.4%); type: functional
[19] = tested on: MCF7; experiment: Induction of apoptotic nuclear morphological changes in human MCF7 cells incubated for 48 hrs by DAPI nuclear staining based fluorescence microscopy; type: functional, cell-based
[20] = tested on: MCF7; experiment: Induction of apoptotic nuclear morphological changes in human MCF7 cells assessed as induction of cell shrinkage and round shape cells at 4 to 8 uM incubated for 48 hrs by DAPI nuclear staining based fluorescence microscopy; type: functional
[21] = tested on: MCF7; experiment: Induction of apoptotic nuclear morphological changes in human MCF7 cells assessed as induction of horse shoe shaped nucleus at 12 uM incubated for 48 hrs by DAPI nuclear staining based fluorescence microscopy; type: functional, cell-based
[22] = tested on: MCF7; experiment: Induction of apoptotic morphological changes in human MCF7 cells assessed as induction of DNA fragmentation at 8 uM incubated for 48 hrs by AO/EB staining staining based fluorescence microscopy; type: functional, cell-based
[23] = tested on: MCF7; experiment: Induction of cell cycle arrest in human MCF7 cells assessed as accumulation at subG1 phase at 8 uM incubated for 48 hrs by propidium iodide staining based flow cytometry (reference value: 0.88%); type: functional
[24] = tested on: MCF7; experiment: Induction of cell cycle arrest in human MCF7 cells assessed as accumulation at G2/M phase at 4 uM incubated for 48 hrs by propidium iodide staining based flow cytometry (reference value: 32.51%); type: functional
[25] = tested on: MCF7; experiment: Induction of apoptosis in human MCF7 cells incubated for 48 hrs by Annexin V and propidium iodide staining based flow cytometry (reference value: 7.4%); type: functional, cell-based
[26] = tested on: DU-145; experiment: Cytotoxicity in human DU145 cells assessed as reduction in cell viability incubated for 48 hrs by MTT assay; type: functional, cell-based; settings: DU-145, 48 h
[27] = tested on: MCF7; experiment: Induction of cell cycle arrest in human MCF7 cells assessed as accumulation at G0/G1 phase at 4 uM incubated for 48 hrs by propidium iodide staining based flow cytometry (reference value: 53.01%); type: functional
[28] = tested on: MCF7; experiment: Induction of cell cycle arrest in human MCF7 cells assessed as accumulation at S phase at 4 uM incubated for 48 hrs by propidium iodide staining based flow cytometry (reference value: 12.28%); type: functional
[29] = tested on: MCF7; experiment: Induction of apoptosis in human MCF7 cells assessed as necrotic cells level at 8 uM incubated for 48 hrs by Annexin V and propidium iodide staining based flow cytometry (reference value: 0.46%); type: functional
[30] = tested on: MCF7; experiment: Induction of late apoptosis in human MCF7 cells at 12 uM incubated for 48 hrs by AO/EB staining staining based fluorescence microscopy; type: functional, cell-based
[31] = tested on: B16-F10; experiment: Cytotoxicity in mouse B16/F10 cells assessed as reduction in cell viability incubated for 48 hrs by MTT assay; type: functional, cell-based; settings: B16-F10, 48 h
[32] = tested on: MCF7; experiment: Induction of apoptosis in human MCF7 cells assessed as early apoptosis cells level at 8 uM incubated for 48 hrs by Annexin V and propidium iodide staining based flow cytometry (reference value: 11.54%); type: functional
[33] = tested on: MCF7; experiment: Induction of apoptosis in human MCF7 cells assessed as viable cells level at 4 uM incubated for 48 hrs by Annexin V and propidium iodide staining based flow cytometry (reference value: 80.6%); type: functional
[34] = tested on: MCF7; experiment: Induction of apoptosis in human MCF7 cells assessed as early apoptosis cells level at 4 uM incubated for 48 hrs by Annexin V and propidium iodide staining based flow cytometry (reference value: 11.54%); type: functional
[35] = tested on: MCF7; experiment: Induction of apoptotic morphological changes in human MCF7 cells assessed as induction of chromatin condensation at 8 uM incubated for 48 hrs by AO/EB staining staining based fluorescence microscopy; type: functional, cell-based
[36] = tested on: MCF7; experiment: Induction of apoptosis in human MCF7 cells assessed as early apoptosis cells level at 12 uM incubated for 48 hrs by Annexin V and propidium iodide staining based flow cytometry (reference value: 11.54%); type: functional
[37] = tested on: MCF7; experiment: Inhibition of colony formation in human MCF7 cells assessed as reduction in colony count incubated for 24 hrs by crystal violet staining based clonogenic cell reproduction assay; type: functional
[38] = tested on: MCF7; experiment: Induction of cell cycle arrest in human MCF7 cells assessed as accumulation at G0/G1 phase at 8 uM incubated for 48 hrs by propidium iodide staining based flow cytometry (reference value: 53.01%); type: functional

With `N#Cc1ccc(CN(C(=S)Nc2cc(C(F)(F)F)cc(C(F)(F)F)c2)n2cnnc2)cc1` the IC50 [1] was 15.2 µM, the Activity [2] was “Active” and the IC50 [3] was 9.28 µM. It also gave an Activity [4] of 14.34%, an Activity [5] of 38.35% and a selectivity ratio [6] of 2. The Activity [7] was 62.98%, the Activity [8] was “Active” and the IC50 [9] was 7.22 µM. The Activity [10] was 1.18%, the Activity [11] was 2.78% and the IC50 [12] was 9.39 µM. The Activity [13] was 44.86%, the Activity [14] was 10.13% and the Activity [15] was 9.26%. The Activity [16] was 24.61%, the Activity [17] was “Active” and the Activity [18] was 24.61%. The Activity [19] was “Dose-dependent effect”, the Activity [20] was “Active” and the Activity [21] was “Active”. For the same compound, the Activity [22] was “Active”, the Activity [23] was 3.57% and the Activity [24] was 25.01%. The Activity [25] was “Dose-dependent effect”, the IC50 [26] was 11.8 µM and the Activity [27] was 61.18%. The Activity [28] was 11.33%, the Activity [29] was 2.78% and the Activity [30] was “Active”. It also gave an IC50 [31] of 4.51 µM, an Activity [32] of 9.63% and an Activity [33] of 62.98%. For the same compound, the Activity [34] was 9.63%, the Activity [35] was “Active” and the Activity [36] was 7.53%. For the same compound, the inhibition [37] was “Dose-dependent effect” and the Activity [38] was 69.97%.
